Laboratory results taken from patent publication US20060258631A1, “Methods of using fatty-acid esters of estrogens and serotonin reuptake inhibiting compounds for reducing the body weight of a mammal and compositions containing the same” (Oleoyl-Estrone Development SL, priority 2004, published 2006).
Several values for one entry are separate records, joined by “and”; a condition that tells them apart may be missing. Equal values may be shown once. Entries after “also recorded” stand apart in the source; their conditions may differ.

Legend:
[1] = Body weight and lipid change of overweight rats treated 10 days by daily gavage; type: in vivo; conditions: overweight male Wistar rats, 10-day daily gavage; oleoyl-estrone 10 micromol/kg, dexfenfluramine 3 mg/kg, sibutramine 5 mg/kg
Source text: (§1) Forty-five day-old male Wistar rats were used. The rats were kept in collective cages in a light cycle, temperature, and humidity-controlled environment. They were fed tap water and a self-selected cafeteria diet (containing an excess of tasty, energy-dense foods, as well as standard chow) for 45 additional days. Then they were subjected to a 5-day diet adaptation period, in which they had rat chow as the sole food available. At this point, the rats weighed 350-370 g and had plenty of body fat. Maintaining the availability of rat chow (daily consumption by the group was recorded) and tap water, body weight was recorded daily. The animals were given a daily gavage of either 0.2 mL of sunflower oil or the same vehicle containing oleoyl-estrone.
(§2) Six groups of animals were used: • a) controls, receiving a daily gavage of 0.2 mL of sunflower oil; • b) oleoyl-estrone, receiving the same daily gavage of 0.2 mL of sunflower oil, but containing oleoyl-estrone, to a a daily dose of 10 micromol per kg of body weight; • c) dexfenfluramine: receiving the same daily gavage of 0.2 mL of sunflower oil, and a second gavage of 0.2 mL of dexfenfluramine in water, to a a daily dose of 3 mg per kg of body weight; • d) dexfenfluramine plus oleoyl-estrone: receiving both gavages, 0.2 mL of oil and oleoyl-estrone (to a daily dose of 10 micromol per kg of body weight) and 0.2 mL of water and dexfenfluramine, to a daily dose of 3 mg per kg of body weight; • e) sibutramine: receiving the same daily gavage of 0.2 mL of sunflower oil, and a second gavage of 0.2 mL of sibutramine in water, to a a daily dose of 5 mg per kg of body weight; • f) sibutramine plus oleoyl-estrone: receiving both gavages, 0.2 mL of oil and oleoyl-estrone (to a daily dose of 10 micromol per kg of body weight) and 0.2 mL of water and sibutramine, to a daily dose of 5 mg per kg of body weight.
(§3) The treatment was maintained up to 10 days, when the animals were killed by decapitation, and their blood and carcass were used for analyses. Plasma was separated from the blood. The plasma was preserved frozen until its utilization for the estimation of glucose, cholesterol, triacylglycerol, free fatty acids, and insulin levels using standard methods, as well as for the estimation of alanine- and aspartate-transaminase activities.
The rat corpses, partially exsanguinated were dissected. The stomach and intestines were cleaned of their contents. The remaining carcass was sealed into polyethylene bags, autoclaved and blended to a fine paste. This paste was analysed for lipid content by extraction using trichloromethane/methanol and corrected by its water content. Lipid content in the paste was referred to whole in vivo body weight for comparison.
(§4) Samples of the rat paste were dried and used for the estimation of their caloric content using a bomb calorimeter. The initial values for lipid content were calculated from the corresponding in vivo body weights at the beginning of the experiment and applying to all the animals the mean percentage of lipid content found in the control (vehicle only) group at the end of the experiment. This same procedure was used to determine the overall energy content of the carcasses by using the experimentally found energy content of the rats in the control group. Likewise, the energy content of the pellet diet was also measured and used to estimate the energy intake of the animals.

[2] = Plasma composition of rats after 10 days of treatment; type: in vivo, male Wistar rats; conditions: after 10-day treatment, compared with other groups
Source text: as §1, with “oleoyl-estrone. […]” for “oleoyl-estrone.”

[3] = Energy balance (carcass energy, food/energy intake, energy expenditure) of overweight rats treated 10 days; type: in vivo, male Wistar rats; conditions: for carcass energy content (ranking among groups): end of 10-day treatment, bomb calorimeter; for decrease in food consumption / loss of energy from the internal stores / net contribution of internal stores to energy expenditure: overweight male Wistar rats, 10-day daily gavage, same doses
Source text: as §1, §2, §3, §4
Energy expenditure (Ee) was estimated as the difference between energy intake (Ei) and accrual (Ea), since: Ei=Ee±Ea.

Compound | loss of lipid (body lipid) [1] [%] | plasma triacylglycerol levels [2] | carcass energy content (ranking among groups) [3] | decrease in food consumption [3] [%] | loss of energy from the internal stores [3] [kJ] | loss of body weight [1] | net contribution of internal stores to energy expenditure [3] [%]
CCCCCCCC/C=C\CCCCCCCC(=O)Oc1ccc2c(c1)CC[C@@H]1[C@@H]2CC[C@]2(C)C(=O)CC[C@@H]12 [oleoyl-estrone, [3(Z)]-3-[(1-oxo-9-octadecenyl)oxy]-estra-1,3,5(10)-trien-17-one] | 13 | lower; also recorded: decreased | smaller | 32 | 357 |  | 
CCN[C@@H](C)Cc1cccc(C(F)(F)F)c1 [dexfenfluramine] | ~16 |  |  | 23 | 546 | 3% and 2.6% | ~20
CC(C)CC(N(C)C)C1(c2ccc(Cl)cc2)CCC1 (stereo not shown) [sibutramine] | 15 |  | smaller | 26 | 403 | 4% and 3.8% | ~20
